Measured values reported in US20230210831A1, “CHRONIC KIDNEY DISEASE TREATMENT OR PREVENTION METHOD” (Japan Tobacco Inc., priority 2019, published 2023).

Assays:
Format in all cases: cell-based
[1] = tested on: Salmonella typhimurium TA98; assay: Ames test (reverse mutation test), TA98
Procedure: (§1) The solvent used herein was dimethyl sulfoxide (DMSO, 100 µL/plate).
(§2) The mixtures were preincubated at 37° C. for 20 minutes while shaking. […] Two plates per treatment were used.

[2] = tested on: Salmonella typhimurium TA1537; assay: Ames test (reverse mutation test), TA1537
Procedure: as §1, §2

[3] = tested on: Salmonella typhimurium TA100; assay: Ames test (reverse mutation test), TA100
Procedure: as §1, §2

[4] = tested on: Salmonella typhimurium TA1535; assay: Ames test (reverse mutation test), TA1535
Procedure: as §1, §2

[5] = tested on: Escherichia coli WP2uvrA; assay: Ames test (reverse mutation test), WP2uvrA
Procedure: as §1, §2

Cc1cccc(-n2nc(N)cc2-c2cccc(OC(F)(F)F)c2)c1 [Metabolite H]
Number of revertant colonies TA98 ([1]; S9 Mix +, dose 2.3 µg/plate): 56
Number of revertant colonies TA98 ([1]; S9 Mix +, dose 6.9 µg/plate): 61
Number of revertant colonies TA98 ([1]; S9 Mix +, dose 21 µg/plate): 152
Number of revertant colonies TA98 ([1]; S9 Mix +, dose 62 µg/plate): 194
Number of revertant colonies TA98 ([1]; S9 Mix +, dose 185 µg/plate): 85
Number of revertant colonies TA98 ([1]; S9 Mix +, dose 556 µg/plate): 56
Number of revertant colonies TA98 ([1]; S9 Mix +, dose 1667 µg/plate): 48
Number of revertant colonies TA98 ([1]; S9 Mix +, dose 5000 µg/plate): 20
Number of revertant colonies TA98 ([1]; S9 Mix -, dose 2.3 µg/plate): 18
Number of revertant colonies TA98 ([1]; S9 Mix -, dose 6.9 µg/plate): 23
Number of revertant colonies TA98 ([1]; S9 Mix -, dose 21 µg/plate): 18
Number of revertant colonies TA98 ([1]; S9 Mix -, dose 62 µg/plate): 20
Number of revertant colonies TA98 ([1]; S9 Mix -, dose 185 µg/plate): 22
Number of revertant colonies TA98 ([1]; S9 Mix -, dose 556 µg/plate): 20
Number of revertant colonies TA98 ([1]; S9 Mix -, dose 1667 µg/plate): 17
Number of revertant colonies TA98 ([1]; S9 Mix -, dose 5000 µg/plate): 3
potential to induce reverse mutations ([1]; TA98 with S9 mix): showed potential to induce reverse mutations
Number of revertant colonies TA1537 ([2]; S9 Mix +, dose 2.3 µg/plate): 11
Number of revertant colonies TA1537 ([2]; S9 Mix +, dose 6.9 µg/plate): 15
Number of revertant colonies TA1537 ([2]; S9 Mix +, dose 21 µg/plate): 26
Number of revertant colonies TA1537 ([2]; S9 Mix +, dose 62 µg/plate): 35
Number of revertant colonies TA1537 ([2]; S9 Mix +, dose 185 µg/plate): 18
Number of revertant colonies TA1537 ([2]; S9 Mix +, dose 556 µg/plate): 10
Number of revertant colonies TA1537 ([2]; S9 Mix +, dose 1667 µg/plate): 19
Number of revertant colonies TA1537 ([2]; S9 Mix +, dose 5000 µg/plate): 15
Number of revertant colonies TA1537 ([2]; S9 Mix -, dose 2.3 µg/plate): 9
Number of revertant colonies TA1537 ([2]; S9 Mix -, dose 6.9 µg/plate): 9
Number of revertant colonies TA1537 ([2]; S9 Mix -, dose 21 µg/plate): 11
Number of revertant colonies TA1537 ([2]; S9 Mix -, dose 62 µg/plate): 9
Number of revertant colonies TA1537 ([2]; S9 Mix -, dose 185 µg/plate): 4
Number of revertant colonies TA1537 ([2]; S9 Mix -, dose 556 µg/plate): 6
Number of revertant colonies TA1537 ([2]; S9 Mix -, dose 1667 µg/plate): 5
Number of revertant colonies TA1537 ([2]; S9 Mix -, dose 5000 µg/plate): 2
potential to induce reverse mutations ([2]; TA1537 with S9 mix): showed potential to induce reverse mutations
Number of revertant colonies TA100 ([3]; S9 Mix +, dose 2.3 µg/plate): 449
Number of revertant colonies TA100 ([3]; S9 Mix +, dose 6.9 µg/plate): 1035
Number of revertant colonies TA100 ([3]; S9 Mix +, dose 21 µg/plate): 2000
Number of revertant colonies TA100 ([3]; S9 Mix +, dose 62 µg/plate): 2212
Number of revertant colonies TA100 ([3]; S9 Mix +, dose 185 µg/plate): 722
Number of revertant colonies TA100 ([3]; S9 Mix +, dose 556 µg/plate): 373
Number of revertant colonies TA100 ([3]; S9 Mix +, dose 1667 µg/plate): 242
Number of revertant colonies TA100 ([3]; S9 Mix +, dose 5000 µg/plate): 75
Number of revertant colonies TA100 ([3]; S9 Mix -, dose 2.3 µg/plate): 130
Number of revertant colonies TA100 ([3]; S9 Mix -, dose 6.9 µg/plate): 127
Number of revertant colonies TA100 ([3]; S9 Mix -, dose 21 µg/plate): 136
Number of revertant colonies TA100 ([3]; S9 Mix -, dose 62 µg/plate): 113
Number of revertant colonies TA100 ([3]; S9 Mix -, dose 185 µg/plate): 103
Number of revertant colonies TA100 ([3]; S9 Mix -, dose 556 µg/plate): 88
Number of revertant colonies TA100 ([3]; S9 Mix -, dose 1667 µg/plate): 79
Number of revertant colonies TA100 ([3]; S9 Mix -, dose 5000 µg/plate): 55
potential to induce reverse mutations ([3]; TA100 with S9 mix): showed potential to induce reverse mutations
Number of revertant colonies TA1535 ([4]; S9 Mix +, dose 1667 µg/plate): 3
Number of revertant colonies TA1535 ([4]; S9 Mix -, dose 185 µg/plate): 14
Number of revertant colonies TA1535 ([4]; S9 Mix -, dose 1667 µg/plate): 6
Number of revertant colonies WP2uvrA ([5]; S9 Mix +, dose 2.3 µg/plate): 23
Number of revertant colonies WP2uvrA ([5]; S9 Mix +, dose 6.9 µg/plate): 25
Number of revertant colonies WP2uvrA ([5]; S9 Mix +, dose 21 µg/plate): 25
Number of revertant colonies WP2uvrA ([5]; S9 Mix +, dose 62 µg/plate): 35
Number of revertant colonies WP2uvrA ([5]; S9 Mix +, dose 185 µg/plate): 26
Number of revertant colonies WP2uvrA ([5]; S9 Mix +, dose 556 µg/plate): 20
Number of revertant colonies WP2uvrA ([5]; S9 Mix +, dose 1667 µg/plate): 19
Number of revertant colonies WP2uvrA ([5]; S9 Mix +, dose 5000 µg/plate): 9
Number of revertant colonies WP2uvrA ([5]; S9 Mix -, dose 2.3 µg/plate): 21
Number of revertant colonies WP2uvrA ([5]; S9 Mix -, dose 6.9 µg/plate): 18
Number of revertant colonies WP2uvrA ([5]; S9 Mix -, dose 21 µg/plate): 18
Number of revertant colonies WP2uvrA ([5]; S9 Mix -, dose 62 µg/plate): 20
Number of revertant colonies WP2uvrA ([5]; S9 Mix -, dose 185 µg/plate): 20
Number of revertant colonies WP2uvrA ([5]; S9 Mix -, dose 556 µg/plate): 17
Number of revertant colonies WP2uvrA ([5]; S9 Mix -, dose 1667 µg/plate): 13
Number of revertant colonies WP2uvrA ([5]; S9 Mix -, dose 5000 µg/plate): 8
